Data as given in patent US20240423937A1, “METHODS OF TREATING PAIN AND USES THEREOF” (University of Tennessee Research Foundation, priority 2021, published 2024).
Entries after “also recorded” stand apart in the source; their conditions may differ. Like-named read-outs stand apart in the source and are kept apart here.

Experiments:
[1] = system: γ-aminobutyric acid (GABA) receptors; conditions: cited from earlier work
[2] = system: BXD29 mice; assay: Daily topical dosing of BXD29 mice for 6 weeks (IOP, optic nerve axons); type: in vivo, mouse
Source text: Objective: An obstacle in this study is the in vivo assessment of any direct neuroprotective effects of PRG that are independent of IOP lowering. […] These characteristics make BXD29 ideal for evaluating the direct neuroprotective properties of PRG on RGCs by eliminating indirect effects that would be mediated through IOP reduction.
We have evidence to show, without wishing to be bound by theory, that topical dosing with our PRG ME is neuroprotective to RGC axons in the ON. We dosed BXD29 mice daily with PRG ME beginning at 5 weeks of age (FIG. 9A) before ON degeneration was marked. […] In contrast, ON from mice dosed with unmedicated ME had loss of axon profiles and increased areas of debris (FIG. 9C). The studies will evaluate the role of PRG as a RGC neuroprotectant and define its cellular mechanism of action.

[3] = Topical pregabalin IOP lowering, aqueous / without microemulsion; type: in vivo
Source text: As a bidirectional component of our study, we corroborated an imputed single-nucleotide polymorphism (SNP) in CACNA2D1 within a human POAG population. Immunohistochemistry studies in humans, rabbits, and mice indicate that CACNA2D1 is located in the ciliary body (CB) and outflow structures (FIG. 2), both of which can influence IOP. […] These findings are consistent with earlier findings that implicated Ca^2+ flux as a regulator of IOP through actions in both the CB and outflow structures^13,14. This is highly significant because few approved IOP-lowering drugs act on both the inflow and outflow facilities, and that we can be able to clarify the implicated but yet unproven role of Ca^2+ flux on inflow and outflow control. On the therapeutic side, because the amplitude and duration of PRG-mediated IOP reduction in our studies were limited (17% IOP reduction that returns to baseline at 6 hr)^15, we then engineered a new topical extended release microemulsion (ME) formulation to increase PRG efficacy and duration of action^12. […] These findings indicate the development of PRG as a new class of glaucoma therapeutics with a MOA distinct from current approved IOP-lowering medications.
However, the amplitude and duration of response were limited and unpractical for clinical use. To increase the efficacy of PRG as an IOP-lowering drug, we engineered a new microemulsion topical formulation^12. Our formulation was designed as a water-in-oil-in water microemulsion with 40% and 60% of the PRG in the innermost and outermost aqueous phases, respectively. Compartmentalization of PRG in two aqueous phases supports both a rapid onset and long duration of IOP-lowering action. Drug release from the outermost aqueous phase is fast, allowing for rapid IOP reduction. To be released from the innermost aqueous phase, however, PRG must pass through two interfaces—the inner water/oil interface and the outer oil/water interface—after which it must diffuse through the viscous polymer solution that constitutes the outmost aqueous phase of our multilayered ME (FIG. 12). Collectively the movement across both interfaces slows movement of PRG from our formulation and supports the extended IOP-lowering effect. After diffusion from the outermost polymer, PRG is available for absorption through the cornea. To ensure that the formulation will remain on the corneal surface for enough time to allow for the sustained release of the drug, the outermost hydrogel layer is prepared from Carbopol 981, which has excellent bio-adhesive properties.

[4] = system: Dutch belted rabbits; assay: Single topical dose IOP lowering in Dutch belted rabbits; type: in vivo, rabbit; conditions: single drop
Experimental: Non-limiting exemplary data: We made a discovery that can make PRG effective in treating vision loss in glaucoma. In addition to its presence in the anterior segment (FIG. 2), CACNA2D1 is also localized to RGCs (FIGS. 3A&B), as well as the ON (FIG. 3C). […] At 24 hours after dosing, IOP is still reduced by >20%.
Moreover, the combined effect of all three layers of our W/O/W ME is critical for enhancing the efficacy of PRG. […] Using this same model, we will evaluate our optimized formulations from Test 1.1.
Research Design and Methods: Dutch belted rabbits (Envigo Rabbitry; formerly Covance) will be used in this single-dose design study. Rabbits from this rabbitry can have higher baseline IOP values than those purchased from other rabbitries. Rabbits (equally balanced between males and females) will be acclimated to handling and IOP measurements for at least seven days before initiation of the study. Slit-lamp biomicroscopic and fundoscopic examinations will be performed before and after the study. Our top three formulations from Test 1.1 will be tested in this model using our methods^12. The IOP of both eyes will be measured using a rebound tonometer (Tono-Pen AVIA Vet, Reichert) immediately before the formulation application (baseline, 8 am) and at hourly time intervals after application until the IOP returns to baseline. Using a sterile micropipette tip, thirty microliters of the formulation containing PRG ME or blank control will be instilled topically into one eye of each rabbit, while the fellow eye will receive the formulation vehicle, and therefore serve as controls. Rabbits will be dosed daily at 8 am for 21 days, and IOP collected at 8 am (immediately pre-dosing) and at the time at which the maximum IOP reduction is measured (Tmax) using our methods^12. Curves similar to FIG. 16 will be generated. Biocompatibility of the antioxidant-containing formulations will be assessed using with slit lamp biomicroscopy as in FIG. 17. […]

[5] = molecular target: CACNA2D2 (Homo sapiens, UniProt Q9NY47); conditions: cited from earlier work
CACNA2D2, sequence (Q9NY47 19-1150, species assumed): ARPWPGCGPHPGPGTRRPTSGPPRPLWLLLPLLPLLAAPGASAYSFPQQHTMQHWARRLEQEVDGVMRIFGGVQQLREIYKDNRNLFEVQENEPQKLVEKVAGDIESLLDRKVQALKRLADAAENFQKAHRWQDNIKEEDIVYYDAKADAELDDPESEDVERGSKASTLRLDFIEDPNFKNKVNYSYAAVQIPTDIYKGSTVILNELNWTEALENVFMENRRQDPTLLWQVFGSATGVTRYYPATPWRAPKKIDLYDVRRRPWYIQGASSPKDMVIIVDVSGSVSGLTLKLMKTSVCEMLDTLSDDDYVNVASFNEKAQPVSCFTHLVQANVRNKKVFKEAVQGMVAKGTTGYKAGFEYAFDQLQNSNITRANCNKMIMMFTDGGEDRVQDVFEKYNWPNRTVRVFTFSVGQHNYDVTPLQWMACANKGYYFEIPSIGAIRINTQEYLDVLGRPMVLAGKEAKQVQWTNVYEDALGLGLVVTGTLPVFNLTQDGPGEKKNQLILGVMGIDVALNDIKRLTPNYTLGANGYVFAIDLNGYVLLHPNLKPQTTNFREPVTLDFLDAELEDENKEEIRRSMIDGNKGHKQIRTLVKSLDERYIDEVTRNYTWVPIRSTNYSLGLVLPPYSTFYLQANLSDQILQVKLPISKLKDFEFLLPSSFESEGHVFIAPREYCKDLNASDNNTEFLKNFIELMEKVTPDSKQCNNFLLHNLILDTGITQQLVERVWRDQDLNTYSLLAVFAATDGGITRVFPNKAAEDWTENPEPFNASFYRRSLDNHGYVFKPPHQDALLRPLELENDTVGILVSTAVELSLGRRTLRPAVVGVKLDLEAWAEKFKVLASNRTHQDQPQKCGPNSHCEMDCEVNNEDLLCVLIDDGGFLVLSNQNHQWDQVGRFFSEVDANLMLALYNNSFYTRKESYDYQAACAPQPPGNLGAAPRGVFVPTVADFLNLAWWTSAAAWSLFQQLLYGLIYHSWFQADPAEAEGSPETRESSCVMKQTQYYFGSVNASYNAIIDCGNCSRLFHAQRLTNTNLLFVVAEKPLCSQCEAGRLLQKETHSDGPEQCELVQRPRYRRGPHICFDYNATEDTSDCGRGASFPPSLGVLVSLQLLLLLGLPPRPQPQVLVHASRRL

[6] = molecular target: CACNA2D1 (Homo sapiens, UniProt P54289); conditions: cited from earlier work
CACNA2D1, sequence (P54289 25-1103): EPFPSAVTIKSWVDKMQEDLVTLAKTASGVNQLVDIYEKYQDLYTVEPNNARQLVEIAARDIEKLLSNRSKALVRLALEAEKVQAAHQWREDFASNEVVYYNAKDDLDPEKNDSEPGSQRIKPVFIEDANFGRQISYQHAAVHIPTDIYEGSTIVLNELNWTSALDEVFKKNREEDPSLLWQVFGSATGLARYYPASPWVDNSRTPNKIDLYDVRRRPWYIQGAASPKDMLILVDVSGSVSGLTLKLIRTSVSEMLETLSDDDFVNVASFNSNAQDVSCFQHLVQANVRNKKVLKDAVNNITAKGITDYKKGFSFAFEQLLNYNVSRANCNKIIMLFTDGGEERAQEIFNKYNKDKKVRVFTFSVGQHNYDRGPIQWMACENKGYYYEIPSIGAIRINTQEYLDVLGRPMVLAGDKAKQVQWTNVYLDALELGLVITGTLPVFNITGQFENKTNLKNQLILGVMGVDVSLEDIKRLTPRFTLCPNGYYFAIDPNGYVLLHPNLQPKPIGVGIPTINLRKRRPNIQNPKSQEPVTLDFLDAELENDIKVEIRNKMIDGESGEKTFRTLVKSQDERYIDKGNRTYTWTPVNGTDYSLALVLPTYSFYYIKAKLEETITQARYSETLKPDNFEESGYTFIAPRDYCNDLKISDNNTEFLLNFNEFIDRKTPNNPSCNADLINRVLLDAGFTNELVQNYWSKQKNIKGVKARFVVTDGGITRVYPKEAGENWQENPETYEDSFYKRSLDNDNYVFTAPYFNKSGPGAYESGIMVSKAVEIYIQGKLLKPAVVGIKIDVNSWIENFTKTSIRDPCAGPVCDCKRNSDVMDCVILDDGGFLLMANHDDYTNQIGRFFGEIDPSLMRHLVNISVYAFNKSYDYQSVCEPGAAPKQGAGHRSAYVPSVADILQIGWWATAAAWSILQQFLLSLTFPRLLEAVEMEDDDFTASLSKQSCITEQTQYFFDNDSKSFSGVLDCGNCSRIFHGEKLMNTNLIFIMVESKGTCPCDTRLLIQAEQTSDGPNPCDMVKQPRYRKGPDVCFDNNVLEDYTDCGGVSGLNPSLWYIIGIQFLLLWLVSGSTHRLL

[7] = not told; cited from earlier work
[8] = topical aqueous / initial PRG formulation
[9] = with versus without the microemulsion, species not stated

## CC(C)C[C@H](CN)CC(=O)O [pregabalin]
[1]
  binding to GABA receptors: does not bind
[2]; daily topical dosing for 6 weeks from 5 weeks of age
  optic nerve axon preservation: prevents degeneration of axons in the ON even in the absence of a reduction in IOP
[2]; topical, up to 6 weeks of daily dosing
  IOP response of BXD29 mice: unresponsive
[3]; [8]
  IOP reduction: 17%
  return of IOP to baseline after dosing: 6 h
[3]; topical dosing
  dose dependence of IOP lowering: dose dependent manner
[3]; [9]
  IOP lowering: about 20%
  return of IOP to baseline after dosing: 8 to 10 h
[4]
  AUC of IOP reduction: 38 mmHg·hr
  maximal % reduction in IOP: 30%
  time at which IOP returns to baseline: 10 h
[5]
  binding to CACNA2D2: bind
[6]
  affinity / specificity for CACNA2D1: antagonist with specificity for CACNA2D1 and high specificity for CACNA2D1 and bind
[6]; listed as PRG
  affinity / specificity for CACNA2D1: high affinity and specificity; also recorded: binds with high affinity
[6]; listed as Pregabalin
  affinity / specificity for CACNA2D1: high affinity and specificity
[7]
  membrane permeability: high membrane permeability
